In brackets after ≈: the same amount, converted by molar mass.
Tests used:
[1] = tested on: ulcerative colitis mouse model induced with DSS; assay: histopathological severity scores in ulcerative colitis mouse model induced with DSS; format: in vivo, C57BL/6 mice
Protocol: Animal tests were performed to confirm anti-inflammatory, anti-crypt cell damage, anti-ulcer, anti-edema, and anti-fibrosis effects of a vactosertib/bentonite complex using a mouse model of ulcerative colitis as one of inflammatory bowel diseases. C57BL/6 mice were selected as test animals, and in order to induce ulcerative colitis, a cycle in which an inflammation inducing substance, DSS was added in drinking water and supplied for 7 days, and then normal drinking water was supplied for 14 days was repeated. Such an inflammation inducing cycle was repeated 3 times to induce chronic inflammation, ulcer and fibrous conditions in the large intestine. To test animal groups except for control groups, from 3 weeks after a first inflammation inducing cycle was elapsed, bentonite, vactosertib, or a vactosertib/bentonite complex was administered twice a day (10 am, 4 pm), 5 days a week, and for total 6 weeks. The bentonite per 1 kg of converted mouse weight was administered with 106.8 mg, the vactosertib was administered with 20.0 mg, and the complex was administered with 126.8 mg. At this time, as the vactosertib/bentonite complex, the complex prepared in Test Example 5 was used. For each test group used in ulcerative colitis animal tests, inflammation inducing substances, test substances, doses of the test substances, and the number of test animals were shown in Table 7 below.
C57BL/6 mice used in the test were supplied from the Orient Bio Gapyeong Center (699-13, Mokdong-ri, Buk-yeon, Gapyeong-gun, Gyeonggi-do), and about 6-week-old during obtaining. For about 7 days after obtaining, the rats were quarantined and purified and then healthy animals were used for the test. When the induced material was administered, the test animals were about 8-week-old, and 52 mice were used. The test animals were bred in the 2nd floor of Clean Animal Room, Bioscience Research Institute, Research Institute of Medical Science at Inha University, and circulated in at least 10 times/hour and bred under conditions of a temperature of 22±4° C., relative humidity of 50±20%, and illuminance of 150 to 300 Lux of lighting on for 12 hours (lighting: 08:00 to 20:00). A radiation solid feed (FeedLab GMO Free Rodent Diet GF2005) for rodents was free-taken using a feeder and water sterilized by an ultraviolet-ray flowing water sterilizer and high-pressure vapor after reverse osmosis was free-taken using a polysulfonate-made drinking water bottle (300 ml).
In order to induce ulcerative colitis, 2% DSS was added in drinking water of mice and continuously supplied for first 7 days of every test cycle (3 weeks). The test substances were orally administered 2 times a day, 5 days a week, and for a total of 6 weeks at the same time of second DSS induction (FIG. 14). The test substance dose was administered in a liquid amount of 20 mL per kg by body weight converted for each individual based on the body weight. The administration was orally performed by putting a test substance in a syringe and injecting the test substance by connecting a feeding needle for rats.
In order to evaluate a treatment effect of test substances on ulcerative colitis, after the end of the test, the animal was anesthetized, opened, and bled and then a histopathological test was performed for each individual. Histopathological findings were subdivided and scored into severity changes of inflammation, crypt cell damage, ulcer, edema, and fibrosis as shown in Table 8 below. In addition, the four histopathological severity scores excluding fibrosis were summed to compare a positive control (G2) and test substance-administered groups (G3, G4, and […]).
Statistical analysis was performed using Graphpad Prism version 8.01, and a minimum unit of significance was set to p<0.05. Since all measured histopathological indexes were nonparametric data, the indexes were represented by a median, 25% to 75% values (in the box), and minimum-maximum values (both ends) in the graph (FIGS. 15 to 20). […]

[2] = partition coefficient (octanol/water); format: physicochemical
interleukin 6 (IL-6) = assay: immunohistochemical IL-6 staining of large intestine, DSS ulcerative colitis mouse model; format: in vivo, C57BL/6 mice; details: DSS 2% mice, same dosing
Protocol: Animal tests were performed to confirm anti-inflammatory, anti-crypt cell damage, anti-ulcer, anti-edema, and anti-fibrosis effects of a vactosertib/bentonite complex using a mouse model of ulcerative colitis as one of inflammatory bowel diseases. C57BL/6 mice were selected as test animals, and in order to induce ulcerative colitis, a cycle in which an inflammation inducing substance, DSS was added in drinking water and supplied for 7 days, and then normal drinking water was supplied for 14 days was repeated. Such an inflammation inducing cycle was repeated 3 times to induce chronic inflammation, ulcer and fibrous conditions in the large intestine. […]
In order to observe an immunohistochemical change of a large intestine tissue, a tissue fixed to a 10% neutral buffer formalin solution was sliced, attached to a coating slide, and deparaffinized, and then stained, and IHC of reacting with antibodies IL-6 (Interleukin-6), α-SMA (α-smooth muscle actin), and TGF-β (transforming growth factor beta) on each slide was requested to an external institute (Notus) and the test was performed. In an individual-specific tissue slide, three constant zones were specified and imaged 100 times, a stained portion to the total area was measured, and a mean value was calculated (Zen 2.3 blue edition, Carl Zeiss, Germany). […]

[3] = aqueous solubility of the compound of Chemical Formula 1; format: physicochemical
[4] = adsorption rate of vactosertib onto bentonite; format: physicochemical
Protocol: The adsorption rates of vactosertib and bentonite according to the pH of a solvent were evaluated. At this time, considering that the vactosertib was not dissolved in neutral, but stated to be dissolved in about 1 mg/mL from pH 3, a test was performed by setting a reaction pH to pH 1, pH 2, and pH 3. First, 10 mg/mL of the vactosertib was dissolved in a 0.1 N hydrochloric acid aqueous solution and diluted with a hydrochloric acid aqueous solution or a phosphate buffer solution (pH 1: 0.1 N hydrochloric acid aqueous solution, pH 2, pH 3: phosphate buffer solution) corresponding to each pH to adjust the concentration to 1 mg/mL. 1 mL of a corresponding drug solution, 8 mL of a reaction solution (that is, 0.1 N hydrochloric acid aqueous solution or phosphate buffer solution) corresponding to each pH, and 1 mL of a 5 mg/mL suspension in which bentonite was suspended in distilled water were mixed and left for 30 minutes to adsorb the drug onto the bentonite. Thereafter, a drug concentration of a supernatant obtained by centrifugation (3,000 rpm, 5 minutes) was analyzed. Through this, the drug amount adsorbed onto the bentonite was indirectly calculated as shown in Equation 1 by removing the remaining drug amount in the supernatant from the entirely applied drug (vactosertib) to calculate an adsorption rate. [formula] [formula] To this end, a sample was prepared in the same manner as in Test Example 1, and a complex was prepared by fixing a reaction concentration and a reaction pH of bentonite to 0.5 mg/mL and pH 1, respectively, and varying the concentration of the applied vactosertib from 0.01 mg/mL to 0.5 mg/mL. In addition, a difference in adsorption rate according to the concentration of vactosertib was measured. To this end, a sample was prepared in the same manner as in Test Example 1, and a complex was prepared by using a solvent of pH 1, setting a concentration ratio of vactosertib and bentonite to 1:5, and varying an absolute concentration (that is, actual concentration). In addition, a difference in adsorption rate according to an absolute concentration was measured.

[5] = DSS 2% mice, oral twice a day, 5 days a week, 6 weeks, bentonite 106.8, vactosertib 20.0, complex 126.8 mg/kg, 3 point scale

Cc1cccc(-c2[nH]c(CNc3ccccc3F)nc2-c2ccc3ncnn3c2)n1 [Vactosertib, N-((4-([1,2,4]triazolo[1,5-a]pyridine-6-yl)-5-(6-methylpyridin-2-yl)-1H-imidazol-2-yl)methyl)-2-fluoroaniline]
Edema score (mean) ([1]; DSS 2% mice, oral twice a day, 5 days a week, 6 weeks, bentonite 106.8, vactosertib 20.0, complex 126.8 mg/kg, 1 point scale): 0.3 | Fibrosis score (mean) [1, 5]: 1.5 | Ulcer score (mean) [1, 5]: 0.9 | Crypt cell damage score (mean) ([1]; DSS 2% mice, oral twice a day, 5 days a week, 6 weeks, bentonite 106.8, vactosertib 20.0, complex 126.8 mg/kg, 4 point scale): 2 | Inflammation score (mean) ([1]; DSS 2% mice, oral twice a day, 5 days a week, 6 weeks, bentonite 106.8, vactosertib 20.0, complex 126.8 mg/kg, 5 point scale): 3.6 | median of inflammation index compared with the positive control group (G2) ([1]; FIG. 15, Dunn's test): slightly low in a median of an inflammation index | median of crypt cell damage index compared with the positive control group (G2) ([1]; FIG. 16, Dunn's test): low in a median of a crypt cell damage index, but had no statistical significance | median of ulcer index compared with the positive control group (G2) ([1]; FIG. 17, Dunn's test): low in a median of an ulcer index, but had no statistical significance | median of fibrosis index compared with the positive control group (G2) ([1]; FIG. 19, Dunn's test): slightly low in a median of a fibrosis index | median of summed severity scores (inflammation, crypt cell damage, ulcer, edema) compared with the positive control group (G2) ([1]; FIG. 20, Dunn's test): low in a median of an ulcer index, but had no statistical significance | Histopathologic total score (mean) ([1]; sum of inflammation, crypt cell damage, ulcer, edema (fibrosis excluded), same dosing): 6.8 | partition coefficient (octanol/water) Log Do/w [2]: 3.31 | reduction of IL-6 staining area compared with G2 group (interleukin 6 (IL-6)): 23.0% | IL-6 (Area %) (interleukin 6 (IL-6); mean and standard error): 9.7 ± 2.9 Area % | solubility ([3]; 25 °C, water, thermodynamic from solid, saturated aqueous solution at 25±3° C., pH 7.2): < 20 µg/mL | pH of a saturated aqueous solution ([3]; 25±3° C.): 7.2 | solubility ([3]; aqueous solution, aqueous buffer, at pH 2.81): 25000 µg/mL (≈ 62700 µM) | solubility ([3]; aqueous solution, aqueous buffer, at pH 3): ~1000 µg/mL (≈ 2500 µM) | solubility ([3]; aqueous solution, aqueous buffer, in pH 4.9 or higher): ≤ 20 µg/mL | Adsorption rate ([4]; vactosertib 0.01 mg/mL, bentonite 0.5 mg/mL, pH 1): 99.4 ± 0.1% | Adsorption rate ([4]; vactosertib 0.025 mg/mL, bentonite 0.5 mg/mL, pH 1): 99.8 ± 0.0% | Adsorption rate ([4]; vactosertib 0.05 mg/mL, bentonite 0.5 mg/mL, pH 1): 99.8 ± 0.1% | Adsorption rate ([4]; vactosertib 0.1 mg/mL, bentonite 0.5 mg/mL, pH 1): 80.7 ± 1.0% | Adsorption rate ([4]; vactosertib 0.1 mg/mL, bentonite 0.5 mg/mL, pH 2): 79.3 ± 1.0% | Adsorption rate ([4]; vactosertib 0.1 mg/mL, bentonite 0.5 mg/mL, pH 3): 79.0 ± 0.8% | Adsorption rate ([4]; vactosertib 0.15 mg/mL, bentonite 0.5 mg/mL, pH 1): 57.1 ± 1.5% | Adsorption rate ([4]; vactosertib 0.2 mg/mL, bentonite 0.5 mg/mL, pH 1): 43.8 ± 0.5% | Adsorption rate ([4]; vactosertib 0.3 mg/mL, bentonite 0.5 mg/mL, pH 1): 31.2 ± 1.2% | Adsorption rate ([4]; vactosertib 0.4 mg/mL, bentonite 0.5 mg/mL, pH 1): 23.0 ± 0.8% | Adsorption rate ([4]; vactosertib 0.5 mg/mL, bentonite 0.5 mg/mL, pH 1): 19.0 ± 0.9% | Adsorption rate ([4]; vactosertib 1 mg/mL, bentonite 5 mg/mL, pH 1): 90.4 ± 0.2%

From US12396985B2, “Composition for oral administration with controlled release properties comprising complex of clay minerals, method for preparing same, and method for controlling release properties” (Korea Institute of Geoscience and Mineral Resources, priority 2019, dated 2025)
